pIC50: −log10 of the molar value.
Tests used:
ESFT cell line CHP-100 = assay: CHP-100 tumors in nude mice treated with YK-4-275; type: in vivo; settings: treated for 4 days when tumors palpable
Protocol: Nude mice were inoculated with ESFT cell line CHP-100. When tumors were palpable, animals were treated with YK-4-275 (NSC635437) for 4 days. Curves show tumor volumes over time.

[1] = test system: neuroblastoma SKNAS cells; assay: Monolayer cell growth, neuroblastoma; type: cell-based; settings: SK-N-AS, 72 hours continuous presence
Description: FIGS. 8A-E show E9RP inhibits ESFT cell growth. In FIGS. 8A and 8B, E9RP is the peptide region of RHA (SEQ ID NO:29) fused to the Penetratin peptide (from the Antennapedia homeodomain; SEQ ID NO:34) and contains amino-terminal fluorescein (FITC). […] Neither lipids nor electricity were used for transduction of peptides into cells. Confocal microscopy identified peptide throughout cells with nuclear uptake. Nuclear uptake was confirmed by DAPI staining. […] Cell lines were placed in 96-well plates with either vehicle alone (●), or E9RP (10 μM) on days 0, 3 and 5 (▴). No lipid or other transfection method was utilized. This represents two experiments with similar results. FIG. 8D depicts dose response of ESFT 1 to either wild-type or single amino-acid mutant peptides. (▪) wild-type E9RP, (E9R (SEQ ID NO:29) fused to the Penetratin peptide (SEQ ID NO:34)), (▾)(E9RP (P2A peptide (SEQ ID NO:30) fused to the Penetratin peptide (SEQ ID NO:34)), (▴)E9RP (D5A peptide (SEQ ID NO:31) fused to the Penetratin peptide (SEQ ID NO:34)). Growth normalized to treating cells with the 16 aa Antp sequence alone (SEQ ID NO:34). FIG. 8E is a comparison of wild-type versus mutant peptides in ESFT and NB cells.
In FIG. 13A, recombinant EWS-FLI1 was treated with NSC635437 for 30 minutes. GST-RHA (630-1020) was added and the complexes were then precipitated with antibody to EWS-FLI1 and Protein G beads. Resolved complexes showing the immunoprecipitated complex control without compound are in lanes 3 (0.1% DMSO) and 5 (0.01% DMSO). […] ESFT TC32 (◯) and neuroblastoma SK-N-AS (▪) were grown for 72 hours in the continuous presence of NSC635437. Cells were incubated in MTT reagent for 4 hours and the dried precipitate was dissolved isopropanol and the absorbance read at 570 nm. Each cell line was standardized to the growth of the DMSO control.
FIG. 30 provides data to show E9R peptide prevents EWS-FLI1 binding to RHA with specific detrimental effects upon ESFT growth and transformation. […] Scale bar equals 20 μm. […] Only expression of EGFP-E9R in TC71 reduced anchorage independent growth. […] Scale bar equals 20 μm.

[2] = target: T1, EWS-FLI1 and RHA in TC32 cells (Homo sapiens, UniProt Q01543+Q01844); assay: Co-precipitation of RHA with EWS-FLI1 from treated TC32 cells; type: cell-based
T1 construct: endogenous in cells; host or cells: TC32 (ESFT cell line)
T1 sequence (Q01844+Q01543 fused): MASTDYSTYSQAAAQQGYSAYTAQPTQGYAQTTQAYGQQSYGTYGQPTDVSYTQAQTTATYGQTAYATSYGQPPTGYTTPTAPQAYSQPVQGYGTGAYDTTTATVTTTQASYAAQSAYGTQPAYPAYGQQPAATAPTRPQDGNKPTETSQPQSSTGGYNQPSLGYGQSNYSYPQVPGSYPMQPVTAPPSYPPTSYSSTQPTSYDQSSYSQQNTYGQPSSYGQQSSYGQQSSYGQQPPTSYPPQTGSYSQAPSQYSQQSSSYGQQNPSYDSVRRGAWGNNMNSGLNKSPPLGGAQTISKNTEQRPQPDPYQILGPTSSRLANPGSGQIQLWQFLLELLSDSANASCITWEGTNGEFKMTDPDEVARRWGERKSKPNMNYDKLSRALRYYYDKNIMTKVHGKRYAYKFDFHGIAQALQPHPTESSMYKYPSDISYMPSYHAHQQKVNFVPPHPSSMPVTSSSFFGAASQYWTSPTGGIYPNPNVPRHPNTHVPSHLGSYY
Protocol: (§1) FIG. 32 provides data showing YK-4-279 reduces EWS-FLI1 functional activity. FIG. 32A concerns TC32 cells that were treated with YK-4-279 and resolved protein lysates and that were immunoblotted for co-precipitated RHA (top), EWS-FLI1 (middle), or total RHA (bottom).
Protein lysates and immunoprecipitations were performed as previously published (Uren et al (2005)). Recombinant GST-RHA (647-1075) was prepared from crude bacterial extracts without further purification.

TC32 = assay: Nuclear fragmentation (DAPI), TC32; type: cell-based; settings: 50 μM, 6 hours
Protocol: Cells were treated for 24 hours with 10 μM YK-4-279. The Caspase-3 substrate DEVD-AMC was incubated with equal amounts of protein lysate and fluorescence from cleaved substrate measured in a fluorimeter. TC32 and non-transformed cells HEK-293, HFK, and HEC were treated for 6 hours with high dose (50 μM) YK-4-279. DAPI stained cells were photographed at 600× using inverted fluorescence microscope.

EWS-FLI1 = assay: SPR displacement assay of E9R from EWS-FLI1; type: binding
Description: FIG. 31 provides data showing a small molecule binding to EWS-FLI1 and displaces E9R from EWS-FLI1. […] Aromatic functionalization produced YK-4-279 a para-methoxy derivative of NSC635437. […] A FLI1 antibody complexed EWS-FLI1 and precipitated it from the solution.
An aromatic optimization strategy was used to design analogs to improve upon the activity of NSC635437.

[3] = test system: cyclin D levels in TC32 cells; assay: Cyclin D immunoblot, TC32 cells; type: cell-based; settings: TC32 cells treated for 14 hours
[4] = test system: EWS-FLI1 responsive NROB1 promoter; assay: Luciferase reporter assay of EWS-FLI1 responsive NROB1 promoter in COS7 cells; type: cell-based; settings: 3 and 10 μM, 18 hours
Protocol: as §1
EGFP-E9R fusion constructs prepared as published (Frangioni, J. V. & Neel, B. G. Use of a general purpose mammalian expression vector for studying intracellular protein targeting: identification of critical residues in the nuclear lamin A/C nuclear localization signal. J Cell Sci 105 (Pt 2), 481-488 (1993)). We transiently transfect the NR0B131 luciferase reporter and full-length EWS-FLI1 into COS-7 cells with Fugene-6 (Roche) and luciferase assay performed per manufacturer's protocol (Dual Luciferase Kit, Promega). Six hours following transfection, cells were treated with either 3 or 10 μM YK-4-279. Cell lysates luciferase activity levels were standardized to renilla activity from a non-affected promoter and plotted as relative luciferase activity (RLA).

panel of ESFT cell lines = assay: Cell growth (WST), panel of ESFT cell lines; type: cell-based; settings: 72 h, 3 days
Protocol: (§2) FIG. 33 provides data showing YK-4-279 is potent and specific inhibitor of ESFT. […] Cell number was measured by MTT or WST reduction after seven days in culture. […] FIG. 33D cell lines expressing EWS-FLI1 compared to non-EWS-FLI1 malignant cell lines following 3 days in culture to establish the IC50 using WST assay. […] Graph plots level of fluorescence in treated divided by untreated lysate. […] Scale bar equals 200 μm.

GUES1 = assay: Cell growth, primary ESFT line GUES1; type: cell-based; settings: Homo sapiens, 72 h; 3 days; read-out: anti-proliferative IC50
Protocol: as §2

Row | Structure (SMILES) | tumor growth (ESFT cell line CHP-100) | cell growth (MTT) [1] | EWS-FLI1 and RHA protein levels [2] | EWS-FLI1/RHA association in treated ESFT cells ([2]; by 10 μM) | apoptosis (nuclear fragmentation) (TC32) | binding of E9R to EWS-FLI1 (EWS-FLI1; 32 μM E9R with 10 μM YK-4-279) | binding of E9R to EWS-FLI1 (EWS-FLI1; 64 μM E9R with 10 μM YK-4-279) | cyclin D levels [3] | NROB1 promoter activity [4] | pIC50 (panel of ESFT cell lines) | pIC50 (GUES1)
1 | O=C(CC1(O)C(=O)Nc2c(Cl)ccc(Cl)c21)c1ccc(Cl)cc1 (centres unmarked) [NSC635437, 4,7-Dichloro-3-[2-(4-chlorophenyl)-2-oxoethyl]-3-hydroxyl-1,3-dihydro-2H-indol-2-one] | inhibition of tumor growth | not neuroblastoma cell growth |  |  |  |  |  |  |  |  | 
2 | COc1ccc(C(=O)CC2(O)C(=O)Nc3c(Cl)ccc(Cl)c32)cc1 (centres unmarked) [YK-4-279, 4,7-Dichloro-3-hydroxy-3-[2-(4-methoxyphenyl)-2-oxoethyl]-1,3-dihydro-2H-indol-2-one] |  |  | did not directly affect EWSFLI1 nor RHA levels | dissociation of EWS-FLI1 from RHA | significant apoptosis | 5 R.U. | 7 R.U. | nearly eliminated cyclin D levels | dose-dependent decrease in promoter activity | 5.70 to 6.30 | 5.10
